Assay results: PubChem BioAssay (NCI)
Where “and” joins values, the source holds several entries; their conditions need not be identical. Equal entries are not always repeated.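 Protocol summary: plate cells (96-well), add compound at 5 concentrations, incubate 48 h, interpolate endpoints linearly. At the GI50, growth is halved. TGI marks complete inhibition of growth.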 Where a SMILES comes first, the peptide text is derived from it. The star is where a group is joined. Trt = c1ccc(C(c2ccccc2)(c2ccccc2)*)cc1; Cbz = O=C(OCc1ccccc1)*

Tested on: MDA-MB-468 breast
Assay: inhibition of tumour cell growth, NCI panel, 48 h

Compound | GI50 | TGI
CCCN1CCC=C(c2ccc(Nc3nc(Nc4ccccc4C(N)=O)c4cc[nH]c4n3)c(C)c2)C1 | > 14.6 µM | > 25 µM
H-QIYKKYRTWYRKAWKVLGKV-NH2 | 10.9 µM | 41.9 µM
CCCCCCCCCCSC(=N)N | 1.66 µM | 3.2 µM
C=C(C)[C@@H]1CC[C@]2(C(=O)NC(C)=O)CC[C@]3(C)[C@H](CC[C@@H]4[C@@]5(C)CCCNC(C)(C)[C@@H]5CC[C@]43C)[C@@H]12 | 1.6 µM | 3.1 µM
O=C(NOCCO)c1cc(CN2OCCCC2=O)c(F)c(F)c1Nc1ccc(I)cc1F | 14.2 µM and > 10 µM | 66.7 µM and > 10 µM
Cn1cc(C2=C(c3cn(CCCCC(=N)N)c4ccccc34)C(=O)NC2=O)c2ccccc21 | 9.81 µM | > 25 µM
Cc1ccc(-c2n[nH]c(=O)c3noc(-c4ccc(C)cc4)c23)cc1 | 0.37 µM | 4.88 µM
Cc1c(Cl)c(C)c(Cc2c(C)c(Cl)c(C)c(Cl)c2O)c(O)c1Cl | 1.82 µM | 8.4 µM
Cc1cc2nc3c4ccc(Br)cc4n(CCN(C)C)c3nc2cc1C | 1.21 µM | 2.91 µM
COC(=O)C(CSC(c1ccccc1)(c1ccccc1)c1ccccc1)NC(=O)C(CC(N)=O)NC(=O)OCc1ccccc1 (stereo not drawn) (Cbz-Asn-Cys(Trt)-OMe; configuration not given here) | 3.13 µM | 14.6 µM
Oc1ccc(Cl)cc1/C=N\NC(=S)N/N=C/c1cc(Cl)ccc1O | 1.76 µM | 7.35 µM
Cc1cc(Nc2nc(-c3ccncc3)nc3ccccc23)n[nH]1 | 6.81 µM | > 100 µM
COc1ccc(C2=Nc3c/c(=C\c4c(O)[nH]c5cc(Cl)ccc45)ccc3=N2)cc1 | 3.06 µM | 10.4 µM
O=C(/C=C/c1cccc2ccccc12)Nc1ncc(Cc2ccccc2)s1 | 0.665 µM | > 24.9 µM
CCN(CC)Cc1cc(Nc2c3ccccc3nc3cc(Cl)ccc23)ccc1O | 1.5 µM | 3.06 µM
C/C(=N\NC(=O)CSc1nc2sc3c(c2c(=O)n1-c1ccccc1)CCC(C)C3)c1ccc(Cl)cc1 (stereo unspecified) | 1.55 µM | 5.92 µM
O=C(C=C=Nc1ccccc1)C(=O)N=C=Cc1ccccc1 | 2.1 µM | 4.93 µM
COc1cc(Cn2c(-c3ccccc3)cc3c2-c2oncc2CC3)cc(OC)c1 | 0.211 µM | 0.745 µM

Compound | GI50 | TGI
COc1cc(/C=N/NC(=O)c2ccccc2Nc2cccc(C(F)(F)F)c2)cc(OC)c1OC | 1.75 µM | 11.8 µM
CCOC(=O)c1c(NCC(=O)Nc2ccc(Br)cc2)sc2c1CCCC2 | 1.95 µM | 4.53 µM
Nc1nc(N)c2c(n1)NC(c1sc(Cl)nc1Cl)CC(c1ccc3c(c1)OCO3)=N2 (stereo unspecified) | 1.65 µM | 13.3 µM
COc1ccc(C(=O)c2cc3c(N)c(C(=O)Nc4cccc(OC)c4)sc3nc2C)cc1 | 0.396 µM | –
C=CC(C)(O)CC/C=C(\CO)C(=O)OC1C(C)OC(O[C@](C)(C=C)CC/C=C(\CO)C(=O)O[C@H]2C[C@@]3(C(=O)OC4OC(CO)C(O)C(O)C4OC4OC(C)C(OC5OC(CO)C(O)C5O)C(OC5OC(CO)C(O)C(O)C5O)C4O)C(CC2(C)C)C2=CCC4[C@@]5(C)CC[C@H](OC6OC(COC7OC(C)C(O)C(O)C7OC7OCC(O)C(O)C7O)C(O)C(O)C6NC(C)=O)C(C)(C)C5CC[C@@]4(C)[C@]2(C)C[C@H]3O)C(O)C1O (stereo partly specified) | 0.189 µM | 0.848 µM
COc1ccc(-c2n/c(=C\c3c(O)[nH]c4ccccc34)cc3c2=Nc2ccccc2-3)cc1 | 0.368 µM | 1.43 µM
COc1cc(OC)c(/C=C/S(=O)(=O)Cc2ccc(OC)c(NCC(=O)NO)c2)c(OC)c1 | 0.0293 µM | > 100 µM
Nc1c(C(=O)Nc2cccc3ccccc23)sc2nc3c(cc12)C(=O)CCC3 | 0.195 µM | > 45 µM
Cn1cc(-c2nc(N[C@@H]3CCCC[C@@H]3N)c(F)c3c2C(=O)NC3)cn1 | 13 µM and 16.9 µM | 44.9 µM and 69.9 µM
Cc1c(Cl)cccc1NC(=O)c1sc2nc3c(cc2c1N)CCCC3 | 0.394 µM | > 100 µM
O=C(Nc1nc2ccccc2s1)c1cc(-c2ccc(F)cc2)n2nc(-c3ccccc3)cc2n1 | 5.18 µM | 36 µM
O=C(Nc1cccc(C(F)(F)F)c1)c1cc2ccccc2cc1O | 2.2 µM | > 51.6 µM
COc1cccc2c1cc1c3c(cc4c(c32)OCO4)C(=O)N1 | 2.04 µM | 6.22 µM
O=C1/C(=C\c2ccccc2)C2OCC=C3CN4CCC56c7ccccc7N1C5C2C3CC46 (stereo unspecified) | 3.31 µM | 26.1 µM
NC(=O)c1ccc(N(C(N)=O)c2c(F)cccc2F)nc1-c1ccc(F)cc1F | > 100 µM | > 100 µM
O=C(CCCCCCCCC(=O)N/N=C\c1cc(Cl)ccc1O)N/N=C\c1cc(Cl)ccc1O | 1.44 µM | 7.36 µM
CN=C(N)N/N=C(\C)c1ccc2c(c1)Cc1ccccc1-2 | 1.79 µM | 4.4 µM
C=C(C)[C@@H]1CC[C@]2(CO)CC[C@]3(C)[C@H](CC[C@@H]4[C@@]5(C)CC[C@H](NCO)C(C)(C)[C@@H]5CC[C@]43C)[C@@H]12 | 0.854 µM | 1.71 µM
